Results taken from patent US20020010209A1, “Use of benzopyranols to treat neurological disorders” (priority 1996, published 2002).

System: trigemino-vascular system
Assay: Trigeminal nerve model in anaesthetised cats (TGN stimulation-induced reduction in carotid vascular resistance)
Type: in vivo, cat
Details: for % Change in TGN-reduction in carotid vascular resistance at 4 hours following continuous iv infusion (mean ± sem) / % Changes of TGW-induced reduction in carotid vascular resistance 3 hours (mean ± sem): anaesthetised cat
Experimental: Trigeminal nerve model in anaesthetised cats
Cats were anaesthetised with α-chloralose (90-110 mg/kg i.v.) and artificially respired with room air. Body temperature was maintained at 37-38 C. A femoral artery was cannulated for recording of blood pressure and heart rate. Arterial blood flow was recorded by a Doppler flow probe placed around the right common carotid artery. Bipolar stainless electrodes were stereotaxically placed into each trigeminal ganglion. Guanethidine (3 mg/kg i.v.) was then administered and 45 min allowed for stabilisation. […]

[1] = continuous iv infusion 3.4 μmol/h, at 4 hours
[2] = intraduodenal administration 10 mg.kg, after 3 hours
[3] = intravenous administration at 3.4 μmol/h, at 4 hours

Structure (SMILES): CC(=O)c1ccc2c(c1)[C@H](NC(=O)c1cc(F)cc(F)c1)[C@@H](O)C(C)(C)O2 (relative stereo) [Compound 3, trans-6-acetyl-4S-(3,5-difluorobenzoylamino)-3,4-dihydro-2,2-dimethyl-2H-1-benzopyran-3R-ol]
- effects on TGN stimulation-induced reductions in carotid vascular resistance (in words) (guanethidine treated anaesthetised cat): marked effects
- inhibition of trigeminal nerve mediated responses (guanethidine treated anaesthetised cat, intraduodenal bolus 10 mg/kg, 2 hours post administration, n=4): 77%

Structure (SMILES): CC(=O)c1ccc2c(c1)[C@H](NC(=O)c1ccc(F)c(Cl)c1)[C@H](O)C(C)(C)O2 (relative stereo) [Compound 2, cis-6-acetyl-4S-(3-chloro-4-fluorobenzoylamino)-3,4-dihydro-2,2-dimethyl-2H-1-benzopyran-3S-ol]
- % Change in TGN-reduction in carotid vascular resistance at 4 hours following continuous iv infusion (mean ± sem) [1]: −30.0 ± 6.6 %
- % Change in TGN-reduction in carotid vascular resistance at 4 hours following continuous iv infusion (mean ± sem) (continuous iv infusion 11 μmol/h, at 4 hours): −21.8 ± 14 %
- % Changes of TGW-induced reduction in carotid vascular resistance 3 hours (mean ± sem) (intraduodenal 10 mg/kg in methylcellulose): −69%
- inhibition of TGN-induced reduction in carotid vascular resistance (in words) [2]: significant inhibition
- inhibition of TGN-induced reduction in carotid vascular resistance (in words) [3]: significant inhibition

Structure (SMILES): CC(=O)c1ccc2c(c1)[C@H](NC(=O)c1ccc(F)cc1)[C@@H](O)C(C)(C)O2 (relative stereo) [Compound 1, trans-6-acetyl-4S-(4-fluorobenzoylamino)-3,4-dihydro-2,2-dimethyl-2H-1-benzopyran-3R-ol]
- % Change in TGN-reduction in carotid vascular resistance at 4 hours following continuous iv infusion (mean ± sem) [1]: −29.1 ± 3.7 %
- % Changes of TGW-induced reduction in carotid vascular resistance 3 hours (mean ± sem) (intraduodenal 10 mg/kg in labrasol): −43 ± 12.9 %
- inhibition of TGN-induced reduction in carotid vascular resistance (in words) [2]: significant inhibition
- inhibition of TGN-induced reduction in carotid vascular resistance (in words) [3]: significant inhibition
